# Laboratory results from patent US20240041042A1, “1-(PYRIDYL)-5-AZINYLPYRAZOLE DERIVATIVES, AND THEIR USE FOR CONTROL OF UNDESIRED PLANT GROWTH” (Bayer Aktiengesellschaft, priority 2020, published 2024).
# Read-outs that look alike come from different tables or passages of the source.
# Key:
# Assay type in all cases: in vivo
# [1] = system: Digitaria sanguinalis (DIGSA); assay: Post-emergence herbicidal action against DIGSA; details: visual rating about 3 weeks after treatment
# How it was run: (§1)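 Doses of 320 g/ha or lower, suffixes a, b and c marking different dosages, were applied post-emergence at the one-leaf stage in 600 l/ha water with 0.5% additive. Damage was assessed visually after about 3 weeks in the greenhouse.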
# Viola tricolor (VIOTR) [2] = assay: Post-emergence herbicidal action against VIOTR; details: 320 g/ha
# How it was run: as §1
# Oryza sativa (ORYSA) = details: crop plant compatibility
# How it was run: (§2)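 Effects were read visually as % versus untreated controls (0% = no effect, 100% = death) about 3 weeks post-treatment. Application was a post-emergence spray at the one-leaf stage of WP/EC formulations with 0.5% additive at 600 l/ha. Different dosages are denoted a, b and c.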
# Lolium rigidum (LOLRI) [3] = assay: Post-emergence herbicidal action against LOLRI; details: dosage 320 g/ha
# How it was run: as §1
# Lolium rigidum (LOLRI) [4] = assay: Pre-emergence herbicidal action against LOLRI
# How it was run: (§3)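 Pre-emergence soil-surface spray, WP/EC formulation, 0.5% additive, 600 l/ha water, rates of 320 g/ha or lower. Greenhouse, ~3 wk. Visual score, % of untreated control (100% = plants dead, 0% = like control).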
# [5] = system: Verconica persica (VERPE); assay: Pre-emergence herbicidal action against VERPE; details: dosage 320 g/ha
# How it was run: as §3
# [6] = system: Digitaria sanguinalis (DIGSA); assay: Pre-emergence herbicidal action against DIGSA
# How it was run: as §3
# [7] = system: Alopecurus myosuroides (ALOMY); assay: Post-emergence herbicidal action against ALOMY; details: visual rating about 3 weeks after treatment vs untreated controls (100% = plants have died, 0% = like control plants)
# How it was run: as §1
# [8] = system: Pharbitis purpurea (PHBPU); assay: Pre-emergence herbicidal action against PHBPU; details: dosage 320 g/ha
# How it was run: as §3
# Avena fatua (AVEFA) = assay: Pre-emergence herbicidal action against AVEFA; details: visual scoring after about 3 weeks vs untreated controls
# How it was run: as §3
# Brassica napus (BRSNW) = details: 20 g/ha, crop plant compatibility, in comparison to untreated controls
# How it was run: (§4)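 Crop injury rated visually in percent against untreated plants roughly 3 weeks after treatment (0% no effect, 100% plants dead). Compounds, as WP or EC with 0.5% additive in 600 l/ha water, were applied to the covering soil right after sowing; greenhouse growth. Suffixes a, b, c denote different dosages.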
# [9] = system: Triticum aestivum (TRZAS); details: 20 g/ha; crop plant compatibility, effect vs untreated controls
# How it was run: as §4
# [10] = system: Verconica persica (VERPE); assay: Post-emergence herbicidal action against VERPE
# How it was run: as §1
# [11] = system: Polygonum convolvulus (POLCO); assay: Pre-emergence herbicidal action against POLCO
# How it was run: as §3
# [12] = system: Pharbitis purpurea (PHBPU); assay: Post-emergence herbicidal action against PHBPU
# How it was run: as §1
# [13] = system: Abutilon theophrasti (ABUTH); assay: Pre-emergence herbicidal action against ABUTH; details: Dosage column 320 g/ha (title prints 3200 g/ha); scored visually after about 3 weeks; 100% = plants have died
# How it was run: as §3
# [14] = system: Echinochloa crus-galli (ECHCG); assay: Pre-emergence herbicidal action against ECHCG; details: dosage 320 g/ha
# How it was run: as §3
# Viola tricolor (VIOTR) [15] = assay: Pre-emergence herbicidal action against VIOTR
# How it was run: as §3
# [16] = system: Amaranthus retroflexus (AMARE); assay: Pre-emergence herbicidal action against AMARE; details: visual scoring after about 3 weeks vs untreated controls
# How it was run: as §3
# [17] = system: Matricaria inodora (MATIN); assay: Post-emergence herbicidal action against MATIN
# How it was run: as §1
# [18] = system: Matricaria inodora (MATIN); assay: Pre-emergence herbicidal action against MATIN
# How it was run: as §3
# Setaria viridis (SETVI) [19] = assay: Pre-emergence herbicidal action against SETVI
# How it was run: as §3
# [20] = system: Alopecurus myosuroides (ALOMY); assay: Pre-emergence herbicidal action against ALOMY; details: scored visually after about 3 weeks, 100% = plants have died
# How it was run: as §3
# Setaria viridis (SETVI) [21] = assay: Post-emergence herbicidal action against SETVI
# How it was run: as §1
# [22] = system: Echinochloa crus-galli (ECHCG); assay: Post-emergence herbicidal action against ECHCG; details: dosage 320 g/ha
# How it was run: as §1
# [23] = system: Polygonum convolvulus (POLCO); assay: Post-emergence herbicidal action against POLCO; details: dosage 320 g/ha
# How it was run: as §1
# [24] = system: Abutilon theophrasti (ABUTH); assay: Post-emergence herbicidal action against ABUTH; details: 320 g/ha, visual rating about 3 weeks after treatment vs untreated controls (100% = plants have died, 0% = like control plants)
# How it was run: as §1
# [25] = system: Amaranthus retroflexus (AMARE); assay: Post-emergence herbicidal action against AMARE
# How it was run: as §1
# Glycine max (GLXMA) = details: pre-emergence, 80 g/ha, crop plant compatibility, in comparison to untreated controls
# How it was run: as §4
# Zea mays (ZEAMX) [26] = details: pre-emergence, crop plant compatibility, in comparison to untreated controls
# How it was run: as §4
# Zea mays (ZEAMX) [27] = details: crop plant compatibility, 80 g/ha, effect vs untreated controls
# How it was run: as §2
# [28] = 80 g/ha, effect in comparison to untreated controls
# [29] = 320 g/ha, visual rating about 3 weeks after treatment
structure (smiles),measurement,setting,value
COC(=O)[C@@H](C)Oc1nn(-c2ncccc2F)c(-c2cncc(F)c2)c1Br [Example I-15],Post-emergence action against DIGSA in %,[1]; 80 g/ha,90%
same,Post-emergence action against DIGSA in %,[1]; 320 g/ha,90%
same,Post-emergence action against VIOTR in %,Viola tricolor (VIOTR) [2],80%
same,Post-emergence action against ORYSA in %,"Oryza sativa (ORYSA); 20 g/ha, effect vs untreated controls",0%
same,Post-emergence action against ORYSA in %,Oryza sativa (ORYSA); [28],10%
same,Post-emergence action against LOLRI in %,Lolium rigidum (LOLRI) [3],80%
same,Pre-emergence action against LOLRI in %,Lolium rigidum (LOLRI) [4]; dosage 80 g/ha,90%
same,Pre-emergence action against LOLRI in %,Lolium rigidum (LOLRI) [4]; dosage 320 g/ha,100%
same,Pre-emergence action against VERPE in %,[5],100%
same,Pre-emergence action against DIGSA in %,"[6]; 80 g/ha, visual scoring after about 3 weeks vs untreated controls",100%
same,Pre-emergence action against DIGSA in %,[6]; dosage 320 g/ha,100%
same,Post-emergence action against ALOMY in %,[7]; 80 g/ha,90%
same,Post-emergence action against ALOMY in %,[7]; 320 g/ha,90%
same,Pre-emergence action against PHBPU in %,[8],80%
same,Pre-emergence action against AVEFA in %,Avena fatua (AVEFA); 80 g/ha,80%
same,Pre-emergence action against AVEFA in %,Avena fatua (AVEFA); 320 g/ha,100%
same,Pre-emergence action against BRSNW in %,Brassica napus (BRSNW),10%
same,Pre-emergence action against TRZAS,[9],10%
same,Post-emergence action against VERPE in %,"[10]; 320 g/ha, VERPE",80%
same,Post-emergence action against VERPE in %,[10]; dosage 80 g/ha,80%
same,Pre-emergence action against POLCO in %,[11]; dosage 80 g/ha,90%
same,Pre-emergence action against POLCO in %,[11]; dosage 320 g/ha,100%
same,Post-emergence action against PHBPU in %,[12]; dosage 320 g/ha,90%
same,Pre-emergence action against ABUTH,[13],90%
same,Pre-emergence action against ECHCG in %,[14],90%
same,Pre-emergence action against VIOTR in %,"Viola tricolor (VIOTR) [15]; 320 g/ha, Viola tricolor",100%
same,Pre-emergence action against VIOTR in %,Viola tricolor (VIOTR) [15]; dosage 80 g/ha,100%
same,Pre-emergence action against AMARE in %,[16]; 80 g/ha,100%
same,Pre-emergence action against AMARE in %,[16]; 320 g/ha,100%
same,Post-emergence action against MATIN in %,[17]; dosage 80 g/ha,80%
same,Post-emergence action against MATIN in %,[17]; dosage 320 g/ha,90%
same,Pre-emergence action against MATIN in %,[18]; dosage 80 g/ha,100%
same,Pre-emergence action against MATIN in %,[18]; dosage 320 g/ha,100%
same,Pre-emergence action against SETVI in %,Setaria viridis (SETVI) [19]; dosage 80 g/ha,100%
same,Pre-emergence action against SETVI in %,Setaria viridis (SETVI) [19]; dosage 320 g/ha,100%
same,Pre-emergence action against ALOMY,[20]; 80 g/ha,100%
same,Pre-emergence action against ALOMY,[20]; 320 g/ha,100%
same,Post-emergence action against SETVI in %,Setaria viridis (SETVI) [21]; dosage 80 g/ha,80%
same,Post-emergence action against SETVI in %,Setaria viridis (SETVI) [21]; dosage 320 g/ha,90%
COC(=O)CCOC(=O)COc1nn(-c2ccccn2)c(-c2ccc(F)nc2)c1F [Example I-309],Post-emergence action against LOLRI in %,Lolium rigidum (LOLRI) [3],90%
same,Post-emergence action against ECHCG in %,[22],90%
same,Post-emergence action against POLCO in %,[23],80%
same,Post-emergence action against ABUTH in %,[24],80%
same,Post-emergence action against AMARE in %,"[25]; 80 g/ha, visual rating about 3 weeks after treatment vs untreated controls (100% = plants have died, 0% = like control plants)",90%
same,Post-emergence action against AMARE in %,[25]; [29],90%
same,Pre-emergence action against GLXMA in %,Glycine max (GLXMA),0%
same,Pre-emergence action against ZEAMX in %,Zea mays (ZEAMX) [26]; 80 g/ha,0%
same,Pre-emergence action against ZEAMX in %,Zea mays (ZEAMX) [26]; 320 g/ha,10%
same,Post-emergence action against VERPE in %,"[10]; 320 g/ha, VERPE",80%
same,Post-emergence action against VERPE in %,[10]; dosage 80 g/ha,80%
same,Pre-emergence action against POLCO in %,[11]; dosage 320 g/ha,80%
same,Post-emergence action against PHBPU in %,[12]; dosage 80 g/ha,80%
same,Post-emergence action against PHBPU in %,[12]; dosage 320 g/ha,90%
same,Pre-emergence action against ECHCG in %,[14],80%
same,Pre-emergence action against AMARE in %,[16]; 320 g/ha,90%
same,Post-emergence action against MATIN in %,[17]; dosage 320 g/ha,80%
same,Pre-emergence action against MATIN in %,[18]; dosage 320 g/ha,90%
same,Pre-emergence action against SETVI in %,Setaria viridis (SETVI) [19]; dosage 320 g/ha,90%
same,Pre-emergence action against ALOMY,[20]; 320 g/ha,90%
same,Post-emergence action against SETVI in %,Setaria viridis (SETVI) [21]; dosage 320 g/ha,90%
C[C@@H](Oc1nn(-c2ccccn2)c(-c2ccc(Cl)nc2)c1Cl)C(=O)O [Example I-238],Post-emergence action against VIOTR in %,Viola tricolor (VIOTR) [2],80%
same,Post-emergence action against ORYSA in %,Oryza sativa (ORYSA); [28],0%
same,Post-emergence action against ORYSA in %,"Oryza sativa (ORYSA); 320 g/ha, effect in comparison to untreated controls",10%
same,Post-emergence action against ZEAMX in %,Zea mays (ZEAMX) [27],10%
same,Post-emergence action against LOLRI in %,Lolium rigidum (LOLRI) [3],80%
same,Post-emergence action against ECHCG in %,[22],80%
same,Post-emergence action against POLCO in %,[23],80%
same,Pre-emergence action against LOLRI in %,Lolium rigidum (LOLRI) [4]; dosage 320 g/ha,90%
same,Pre-emergence action against DIGSA in %,[6]; dosage 320 g/ha,90%
same,Post-emergence action against ALOMY in %,[7]; 320 g/ha,80%
same,Post-emergence action against AMARE in %,[25]; [29],80%
same,Pre-emergence action against GLXMA in %,Glycine max (GLXMA),20%
same,Pre-emergence action against POLCO in %,[11]; dosage 320 g/ha,80%
same,Post-emergence action against PHBPU in %,[12]; dosage 320 g/ha,80%
same,Pre-emergence action against VIOTR in %,"Viola tricolor (VIOTR) [15]; 320 g/ha, Viola tricolor",90%
same,Pre-emergence action against AMARE in %,[16]; 320 g/ha,80%
same,Pre-emergence action against ALOMY,[20]; 320 g/ha,90%
